Drawing on patent publication US10040791B2, “Isoxazole derivative as mutant isocitrate dehydrogenase 1 inhibitor” (Daiichi Sankyo Company, Limited, priority 2014, dated 2018), this text covers response vs control in vivo and IC50 for 23 compounds.

A word on the IC50: it is the concentration at which inhibition is half-maximal.

The subject of assay [1] is HT1080 xenografted mice (IDH1R132C). Briefly: 2-HG production inhibitory activity using HT1080 xenografted mice. The format is in vivo, mouse. The note with it: Mus musculus, HT-1080, po, 6 h, 2-HG production, HT1080 xenografted mice; read-out: Test Example 5 Ratio (%). The procedure, abridged:
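Mice bearing HT1080 tumors received 75 mg/kg compound by oral gavage twice a day, three doses in total, at 10 mL/kg; vehicle-dosed mice were negative controls. Tumors were collected 6 h after the final dose, frozen, homogenized in methanol and centrifuged, and 2-HG was measured in the extracts.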

The test system of assay [2] is HT-1080 cells expressing IDH1R132C. The assay can be described thus: 2-HG production inhibitory activity using HT1080 cell. In kind it is cell-based, human. Conditions: Homo sapiens, HT-1080; 2-HG production, HT1080 cells; read-out: Test Example 3 IC50. The procedure: Then, 100 μL of growth medium B was added to each well, further 25 μL of a solution of each compound diluted to a predetermined concentration with growth medium B was added to each well, and the cells were incubated at 37° C. for 2 days under 5% CO2. […] Then, 150 μL of ultrapure water was further added to each well, and the mixture was stirred by pipetting and stored at −20° C.
The preserved solutions were thawed at room temperature.

The target in another assay is IDH1R132C (Homo sapiens (Human), UniProt O75874, R132C). The assay can be described thus: Inhibitory activity against IDH1R132C enzyme (NADPH detection, WST-8). In kind it is biochemical. Conditions: 10 nM, residual NADPH detected with WST-8, read-out: Test Example 1 IDH1 R132C IC50. (In general: Tetrazolium assays rely on reduction of a dye to a coloured formazan, in cell work by metabolically active cells.)
Chain of IDH1R132C (O75874 whole entry R132C): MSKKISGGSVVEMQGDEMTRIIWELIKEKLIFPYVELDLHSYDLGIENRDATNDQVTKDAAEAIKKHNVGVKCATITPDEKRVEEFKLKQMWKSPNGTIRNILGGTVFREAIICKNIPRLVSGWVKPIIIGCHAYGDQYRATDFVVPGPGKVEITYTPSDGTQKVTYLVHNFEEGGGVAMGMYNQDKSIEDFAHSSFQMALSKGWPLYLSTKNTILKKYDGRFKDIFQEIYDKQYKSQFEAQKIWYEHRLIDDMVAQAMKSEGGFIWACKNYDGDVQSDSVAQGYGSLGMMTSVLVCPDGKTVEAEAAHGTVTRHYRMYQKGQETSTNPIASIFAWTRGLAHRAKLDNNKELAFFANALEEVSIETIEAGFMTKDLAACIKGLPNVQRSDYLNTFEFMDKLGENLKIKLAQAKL

With `C=CC(=O)N1CCC(c2onc(-c3c(Cl)cc(Cl)cc3Cl)c2C(=O)n2ccc3c(/C=C(\C)C(=O)O)cccc32)CC1` [Example 116], the response vs control in vivo at 75 mg/kg in assay [1] worked out at 57%. Further, the figures for the IC50 (in assay [2]; at IDH1R132C) were 0.042 µM and 0.471 µM, respectively.

For the compound `C=CC(=O)N1CCC(OC)(c2onc(-c3c(Cl)cc(Cl)cc3Cl)c2C(=O)n2cc(C)c3c(/C=C/C(=O)O)cccc32)CC1` [Example 117], the response vs control in vivo at 75 mg/kg in assay [1] was determined as 10%. In addition, the values for the IC50 (in assay [2]; on IDH1R132C) were 0.002 µM and 0.117 µM, respectively.

Regarding `C=CC(=O)N1CCC(c2onc(-c3c(Cl)cc(Cl)cc3Cl)c2C(=O)n2ncc3c(/C=C/C(=O)O)cccc32)CC1` [Example 118], in assay [1], the response vs control in vivo at 75 mg/kg was found to be 87%. For the same compound, the IC50 in assay [2] was found to be 0.097 µM; on IDH1R132C it was 0.625 µM.

In the case of `C/C=C/C(=O)N1CCC(c2onc(-c3c(Cl)cc(Cl)cc3Cl)c2C(=O)n2cc(C)c3c(/C=C/C(=O)O)cccc32)CC1` [Example 119], the response vs control in vivo at 75 mg/kg in assay [1] came to 12%. The IC50 in assay [2] is 0.03 µM; on IDH1R132C it was 0.19 µM.

As for `C=CC(=O)N1CCC(COC)(c2onc(-c3c(Cl)cc(Cl)cc3Cl)c2C(=O)n2ccc3c(/C=C/C(=O)O)cccc32)CC1` [Example 120], in assay [1], the response vs control in vivo at 75 mg/kg turned out to be 31%. Moreover, the results for the IC50 (in assay [2]; on IDH1R132C) were 0.051 µM and 0.357 µM, respectively.

Take `C=CC(=O)N1CCC(c2onc(-c3cc(F)c(Cl)cc3Cl)c2C(=O)n2cc(C)c3c(/C=C/C(=O)O)cccc32)CC1` [Example 121]: in assay [1], the response vs control in vivo at 75 mg/kg turned out to be 8%. In addition, the IC50 turned out to be 0.008 µM in assay [2] and 0.11 µM on IDH1R132C.

For the compound `C=CC(=O)N1CCC(c2onc(-c3c(C)cc(Cl)cc3C)c2C(=O)n2cc(C)c3c(/C=C/C(=O)O)cccc32)CC1` [Example 122], the response vs control in vivo at 75 mg/kg in assay [1] was 29%. Moreover, the values for the IC50 (in assay [2]; at IDH1R132C) were 0.006 µM and 0.094 µM, respectively.

For the compound `C=CC(=O)N1CCC(c2onc(-c3c(Cl)cc(Cl)cc3Cl)c2C(=O)n2cc3c4c(cccc42)C(CC(=O)O)CC3)CC1` (stereo not drawn) [Example 125], the response vs control in vivo at 75 mg/kg in assay [1] came out at 72%. The IC50 in assay [2] amounted to 0.078 µM; at IDH1R132C, 0.454 µM.

Take `C=CC(=O)N1CCC(c2onc(-c3cc(F)c(Cl)cc3Cl)c2C(=O)n2cc3c4c(cccc42)/C(=C/C(=O)O)CC3)CC1` [Example 128]: in assay [1], the response vs control in vivo at 75 mg/kg is 1%. Besides, the IC50 in assay [2] came to 0.003 µM; at IDH1R132C it was 0.091 µM.

`C=CC(=O)N1CCC(c2onc(-c3ccc(Cl)c(F)c3Cl)c2C(=O)n2cc3c4c(cccc42)/C(=C/C(=O)O)CC3)CC1` [Example 130, (2E)-[1-{[5-(1-Acryloylpiperidin-4-yl)-3-(2,4-dichloro-3-fluorophenyl)-1,2-oxazol-4-yl]carbonyl}-3,4-dihydrobenzo[cd]indol-5(1H)-ylidene]ethanoic acid]: in assay [1], the response vs control in vivo at 75 mg/kg stood at 5%. The IC50 in assay [2] came to 0.014 µM; on IDH1R132C, 0.143 µM.

Regarding `C=CC(=O)N1CCC(c2onc(-c3ccc(Cl)cc3Cl)c2C(=O)n2cc3c4c(cccc42)/C(=C/C(=O)O)CC3)CC1` [Example 131, (2E)-[1-{[5-(1-Acryloylpiperidin-4-yl)-3-(2,4-dichlorophenyl)-1,2-oxazol-4-yl]carbonyl}-3,4-dihydrobenzo[cd]indol-5(1H)-ylidene]ethanoic acid], the response vs control in vivo at 75 mg/kg in assay [1] turned out to be 3%. Also, the values for the IC50 (in assay [2]; on IDH1R132C) were 0.004 µM and 0.133 µM, respectively.

As for `C=CC(=O)N1CCN(c2onc(-c3c(Cl)cccc3Cl)c2C(=O)n2ccc3c(/C=C/C(=O)O)cccc32)[C@H](C)C1` [Example 141, (2E)-3-[1-({5-[(2R)-4-Acryloyl-2-methylpiperazin-1-yl]-3-(2,6-dichlorophenyl)-1,2-oxazol-4-yl}carbonyl)-1H-indol-4-yl]prop-2-enoic acid], in assay [1], the response vs control in vivo at 75 mg/kg was 36%. Moreover, the IC50 in assay [2] turned out to be 0.19 µM; on IDH1R132C, 0.137 µM.

In the case of `C=CC(=O)N1CCN(c2onc(-c3c(Cl)cccc3Cl)c2C(=O)n2ccc3c(/C=C/C(=O)O)cccc32)CC1` [Example 142, (2E)-3-(1-{[5-(4-Acryloylpiperazin-1-yl)-3-(2,6-dichlorophenyl)-1,2-oxazol-4-yl]carbonyl}-1H-indol-4-yl)prop-2-enoic acid], the response vs control in vivo at 75 mg/kg in assay [1] worked out at 56%. In addition, the IC50 in assay [2] was determined as 0.134 µM; at IDH1R132C, 0.123 µM.

For the compound `C=CC(=O)N1CCN(c2onc(-c3c(Cl)cc(Cl)cc3Cl)c2C(=O)n2ccc3c(/C=C/C(=O)O)cccc32)CC1` [Example 143, (2E)-3-(1-{[5-(4-Acryloylpiperazin-1-yl)-3-(2,4,6-trichlorophenyl)-1,2-oxazol-4-yl]carbonyl}-1H-indol-4-yl)prop-2-enoic acid], the response vs control in vivo at 75 mg/kg in assay [1] was found to be 60%. Besides, the half-maximal inhibitory concentration (IC50) in assay [2] was determined as 0.148 µM; at IDH1R132C, 0.15 µM.

Consider `C=CC(=O)N1C[C@@H](C)N(c2onc(-c3c(Cl)cccc3Cl)c2C(=O)n2ccc3c(/C=C/C(=O)O)cccc32)[C@@H](C)C1` [Example 144, (2E)-3-(1-{[5-(4-Acryloyl-cis-2,6-dimethylpiperazin-1-yl)-3-(2,6-dichlorophenyl)-1,2-oxazol-4-yl]carbonyl}-1H-indol-4-yl)prop-2-enoic acid], for which the response vs control in vivo at 75 mg/kg in assay [1] came out at 34%. In addition, the IC50 in assay [2] was determined as 0.107 µM; at IDH1R132C, 0.151 µM.

For the compound `C=CC(=O)N1CCN(c2onc(-c3c(Cl)cccc3Cl)c2C(=O)n2ccc3c(/C=C/C(=O)O)cccc32)[C@@H](C)C1` [Example 145, (2E)-3-[1-({5-[(2S)-4-Acryloyl-2-methylpiperazin-1-yl]-3-(2,6-dichlorophenyl)-1,2-oxazol-4-yl}carbonyl)-1H-indol-4-yl]prop-2-enoic acid], the response vs control in vivo at 75 mg/kg in assay [1] stood at 56%. Besides, the results for the IC50 (in assay [2]; at IDH1R132C) were 0.82 µM and 0.214 µM, respectively.

On to `C=CC(=O)N1CCN(c2onc(-c3c(Cl)cccc3Cl)c2C(=O)n2ccc3c(/C=C/C(=O)O)cccc32)C2(CC2)C1` [Example 147, (2E)-3-(1-{[5-[7-Acryloyl-4,7-diazaspiro[2.5]oct-4-yl]-3-(2,6-dichlorophenyl)-1,2-oxazol-4-yl]carbonyl}-1H-indol-4-yl)prop-2-enoic acid], for which the response vs control in vivo at 75 mg/kg in assay [1] amounted to 18%. The results for the IC50 (in assay [2]; at IDH1R132C) were 0.219 µM and 0.078 µM, respectively.

Turning to `C=CC(=O)N1CCN(c2onc(-c3c(Cl)cc(Cl)cc3Cl)c2C(=O)n2ccc3c(/C=C/C(=O)O)cccc32)C[C@H]1C` [Example 148, (2E)-3-[1-({5-[(3R)-4-Acryloyl-3-methylpiperazin-1-yl]3-(2,4,6-trichlorophenyl)-1,2-oxazol-4-yl}carbonyl)-1H-indol-4-yl]prop-2-enoic acid], the response vs control in vivo at 75 mg/kg in assay [1] was determined as 50%. Moreover, the IC50 in assay [2] worked out at 0.114 µM; at IDH1R132C it was 0.225 µM.

As to `C=CS(=O)(=O)N1CCN(c2onc(-c3c(Cl)cccc3Cl)c2C(=O)n2ccc3c(/C=C/C(=O)O)cccc32)CC1` [Example 149, (2E)-3-[1-({3-(2,6-Dichlorophenyl)-5-[4-(ethenylsulfonyl)piperazin-1-yl]-1,2-oxazol-4-yl}carbonyl)-1H-indol-4-yl]prop-2-enoic acid], the response vs control in vivo at 75 mg/kg in assay [1] is 96%. Further, the IC50 in assay [2] was 0.278 µM; on IDH1R132C, 0.132 µM.

For the compound `C=CC(=O)N1CCN(c2onc(-c3c(Cl)cc(Cl)cc3Cl)c2C(=O)n2ccc3c(/C=C/C(=O)O)cccc32)C2(CC2)C1` [Example 150, (2E)-3-(1-{[5-[7-Acryloyl-4,7-diazaspiro[2.5]oct-4-yl]-3-(2,4,6-trichlorophenyl)-1,2-oxazol-4-yl]carbonyl}-1H-indol-4-yl)prop-2-enoic acid], in assay [1], the response vs control in vivo at 75 mg/kg was found to be 18%. In addition, the IC50 was 0.041 µM in assay [2] and 0.098 µM on IDH1R132C.

For the compound `C=CC(=O)N1C[C@@H](C)N(c2onc(-c3c(Cl)cc(Cl)cc3Cl)c2C(=O)n2ccc3c(/C=C/C(=O)O)cccc32)[C@@H](C)C1` [Example 151, (2E)-3-(1-{[5-(4-Acryloyl-cis-2,6-dimethylpiperazin-1-yl)-3-(2,4,6-trichlorophenyl)-1,2-oxazol-4-yl]carbonyl}-1H-indol-4-yl)prop-2-enoic acid], the response vs control in vivo at 75 mg/kg in assay [1] is 60%. Further, the 50% inhibitory concentration (IC50) in assay [2] came out at 0.041 µM; at IDH1R132C, 0.168 µM.

As to `C=CC(=O)N1C[C@@H](C)N(c2onc(-c3c(Cl)cc(Cl)cc3Cl)c2C(=O)n2ccc3c(/C=C/C(=O)O)cccc32)C[C@H]1C` [Example 152, (2E)-3-[1-({5-[(2R,5R)-4-Acryloyl-2,5-dimethylpiperazin-1-yl]-3-(2,4,6-trichlorophenyl)-1,2-oxazol-4-yl}carbonyl)-1H-indol-4-yl]prop-2-enoic acid], the response vs control in vivo at 75 mg/kg in assay [1] turned out to be 87%. Besides, the concentration for half-maximal inhibition (IC50) stood at 0.276 µM in assay [2] and 0.222 µM at IDH1R132C.

`C=CC(=O)N1CCN(c2onc(-c3c(Cl)cccc3Cl)c2C(=O)n2ccc3c(/C=C/C(=O)O)cccc32)[C@H](C2CC2)C1` [Example 154, (2E)-3-[1-({5-[(2R)-4-Acryloyl-2-cyclopropylpiperazin-1-yl]-3-(2,6-dichlorophenyl)-1,2-oxazol-4-yl}carbonyl)-1H-indol-4-yl]prop-2-enoic acid]: in assay [1], the response vs control in vivo at 75 mg/kg was determined as 45%. The half-maximal inhibitory concentration (IC50) in assay [2] stood at 0.294 µM; at IDH1R132C, 0.235 µM.
